The source of these data is patent US7928233B2, “Spiroindolinone pyridine derivatives” (Hoffmann-La Roche Inc., priority 2009, dated 2011).

As usually defined, the IC50 is the concentration at which inhibition is half-maximal.

This experiment concerns the target interaction between p53 and MDM2 proteins (recombinant GST-tagged MDM2 / p53 peptide) (Homo sapiens, UniProt Q00987). The experiment can be described thus: HTRF assay of inhibition of p53-MDM2 interaction. The format is binding. The following applies: 0.02% BSA; HTRF GST-MDM2 / biotinylated p53 peptide. On the procedure: The ability of the compounds to inhibit the interaction between p53 and MDM2 proteins was measured by an HTRF (homogeneous time-resolved fluorescence) assay in which recombinant GST-tagged MDM2 binds to a peptide that resembles the MDM2-interacting region of p53 (Lane et al.). Binding of GST-MDM2 protein and p53-peptide (biotinylated on its N-terminal end) is registered by the FRET (fluorescence resonance energy transfer) between Europium (Eu)-labeled anti-GST antibody and streptavidin-conjugated Allophycocyanin (APC).
Test is performed in black flat-bottom 384-well plates (Costar) in a total volume of 40 uL containing: 90 nM biotinylate peptide, 160 ng/ml GST-MDM2, 20 nM streptavidin-APC (PerkinElmerWallac), 2 nM Eu-labeled anti-GST-antibody (PerkinElmerWallac), 0.2% bovine serum albumin (BSA), 1 mM dithiothreitol (DTT) and 20 mM Tris-borate saline (TBS) buffer as follows: Add 10 uL of GST-MDM2 (640 ng/ml working solution) in reaction buffer to each well. Add 10 uL diluted compounds (1:5 dilution in reaction buffer) to each well, mix by shaking Add 20 uL biotinylated p53 peptide (180 nM working solution) in reaction buffer to each well and mix on shaker. Incubate at 37° C. for 1 h. Add 20 uL streptavidin-APC and Eu-anti-GST antibody mixture (6 nM Eu-anti-GST and 60 nM streptavidin-APC working solution) in TBS buffer with 0.2% BSA, shake at room temperature for 30 minutes and read using a TRF-capable plate reader at 665 and 615 nm (Victor 5, Perkin ElmerWallac). If not specified, the reagents were purchased from Sigma Chemical Co.
Background: Time-resolved FRET reads energy transfer from a long-lived donor to a nearby acceptor.

Each structure is given as a SMILES string.

interaction between p53 and MDM2 proteins (recombinant GST-tagged MDM2 / p53 peptide), sequence (Q00987 whole entry): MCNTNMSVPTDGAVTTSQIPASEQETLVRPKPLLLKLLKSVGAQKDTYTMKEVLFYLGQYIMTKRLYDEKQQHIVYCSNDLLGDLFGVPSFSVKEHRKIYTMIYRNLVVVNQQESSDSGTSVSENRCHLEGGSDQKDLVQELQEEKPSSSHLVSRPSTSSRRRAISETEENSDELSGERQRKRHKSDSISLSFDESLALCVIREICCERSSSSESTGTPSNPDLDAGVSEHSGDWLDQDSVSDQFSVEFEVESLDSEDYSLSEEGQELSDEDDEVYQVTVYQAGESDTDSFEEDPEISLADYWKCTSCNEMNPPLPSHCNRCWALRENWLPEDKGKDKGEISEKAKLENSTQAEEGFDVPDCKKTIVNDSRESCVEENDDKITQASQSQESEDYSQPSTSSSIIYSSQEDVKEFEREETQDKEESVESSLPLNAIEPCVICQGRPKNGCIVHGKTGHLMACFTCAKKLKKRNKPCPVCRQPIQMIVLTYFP

For the compound `Cc1ccc(F)cc1[C@@H]1NC(=O)C[C@H](c2cc(Cl)cnc2OC(C)(C)C(=O)O)[C@@]12C(=O)Nc1cc(Cl)ccc12` (racemic) [Example 8, racemic (2′S, 3S, 4′R)-6-chloro-4′-[5-chloro-2-(1-hydroxycarbonyl-1-methyl-ethoxy)-pyridin-3-yl]-2′-(5-fluoro-2-methyl-phenyl) spiro[3H-indole-3,3′-piperidine]-2,6′(1H)-dione], the IC50 is 145 nM.

For the compound `Cc1ccc(F)cc1[C@@H]1NC(=O)C[C@H](c2cc(Cl)cnc2OC(C)(C)C(=O)O)[C@@]12C(=O)Nc1cc(Cl)ccc12` [Example 9, chiral (2′S, 3S, 4′R)-6-chloro-4′-[5-chloro-2-(1-hydroxycarbonyl-1-methyl-ethoxy)-pyridin-3-yl]-2′-(5-fluoro-2-methyl-phenyl) spiro[3H-indole-3,3′-piperidine]-2,6′(1H)-dione], the IC50 was determined as 108 nM.

For the compound `Cc1ccc(F)cc1[C@@H]1NC(=O)C[C@H](c2cc(Cl)cnc2OC(C)(C)C(=O)NS(C)(=O)=O)[C@@]12C(=O)Nc1cc(Cl)ccc12` [Example 11, chiral (2′S, 3S, 4′R)-4′-[5-chloro-2-(2-methanesulfonylamino-1,1-methyl-2-oxo-ethoxy)-pyridin-3-yl]-6-chloro-2′-(5-fluoro-2-methyl-phenyl) spiro[3H-indole-3,3′-piperidine]-2,6′(1H)-dione], the IC50 was determined as 135 nM.

Consider `Cc1ccc(Cl)cc1[C@@H]1NC(=O)C[C@H](c2cc(Cl)cnc2OC(C)(C)C(=O)O)[C@@]12C(=O)Nc1cc(Cl)ccc12` [Example 15, chiral (2′S, 3S, 4′R)-6-chloro-4′-[5-chloro-2-(1-hydroxycarbonyl-1-methyl-ethoxy)-pyridin-3-yl]-2′-(5-chloro-2-methyl-phenyl) spiro[3H-indole-3,3′-piperidine]-2,6′(1H)-dione], for which the IC50 stood at 56 nM.
